Legend:
Type in all cases: cell-based
[1] = system: HCT116; assay: In-vitro cytotoxicity test of compounds ([…]-GLO), HCT116; conditions: Homo sapiens, HCT-116; HCT116, 72 hours
Method: (§1) Killing of human tumor cell lines was evaluated in vitro using the protocol recommended in the […]-GLO® kit (Promega, Madison, Wis.). Briefly, 3×10^3 cells in […] RPMI+10% FBS were added to the inner wells of white-walled 96-well plates (Corning® Costar®, Fisher Scientific, Waltham, Mass.). The following cell lines were tested: A549, HCT116 and SKBR3. The test compounds were diluted to a 5Ax stock (125 μM) in RPMI+10% FBS. Treatments were then serially diluted 1:10 in RPMI+10% FBS. […] of this series was added to the cells in triplicate, resulting in a 9-point dose curve of test compound ranging from […] at the highest concentration to 2.5×10^−7 mM at the lowest. DMSO (vehicle) and media-only controls also were included. Plates were incubated at 37° C., 5% CO2 for 72 hours. At the end of the incubation period, […] of the Substrate Solution (Promega, Madison Wis.) was added to each well. Luminescence was measured using an EnVision Multilabel plate reader (Perkin Elmer, Waltham, Mass.). Data were analyzed and graphed using GraphPad Prism software (GraphPad Software, Inc., La Jolla, Calif.).

[2] = system: SKBR3; assay: In-vitro cytotoxicity test of compounds ([…]-GLO), SKBR3; conditions: Homo sapiens, SK-BR-3; SKBR3, 72 hours
Method: as §1

[3] = system: A549; assay: In-vitro cytotoxicity test of compounds ([…]-GLO), A549; conditions: Homo sapiens; A549, 72 hours
Method: as §1

Compound	IC50 [1] [pM]	IC50 [2] [pM]	IC50 [3] [pM]
CC[C@@]1(O)C(=O)OCc2c1cc1n(c2=O)Cc2c-1nc1cc(F)c(N)c3c1c2CCC3 [Compound 1, (S)-4-amino-9-ethyl-5-fluoro-9-hydroxy-1,2,3,9,12,15-hexahydro-10H,13H-benzo[de]pyrano[3′,4′:6,7]indolizino[1,2-b]quinoline-10,13-dione]	164	95.8	248
CC[C@@]1(O)C(=O)OCc2c1cc1n(c2=O)Cc2c-1nc1cc(F)c(C)c3c1c2[C@@H](N)CC3 [Exatecan]	996	181	2450

From US20230111996A1, “COMPOUNDS AND CONJUGATES THEREOF” (priority 2020, published 2023)
